The text below walks through data of EP2197879B1, “C7-SUBSTITUTED CAMPTOTHECIN ANALOGS” (priority 2007, dated 2009).

Test [1] relates to A2780/DX5 cells. Put plainly: Sulforhodamine B (SRB) cytotoxicity assay in A2780/DX5 cells. The note with it: for IC50 Ratio: A2780/DX5 versus A2780/WT. In kind it is cell-based. On the procedure: (§1) Each of the testing conditions used in this study in both A2780/WT (wild-type) and A2780/DX5 cells were repeated in five to fifteen experiments that were performed on separate days. Each experiment consisted of one microtiter plate with at least eight individual assays of a given drug treatment condition on the plate. The sulforhodamine B (SRB) assay was used to assess cytotoxicity and absorbance at 570 nm (A570) in order to calculate the percentage of cell control (or percent cell survival) for the various treatment conditions in the plate wells.
(§2) Roswell Park Memorial Institute (RPMI 1640) medium, fetal bovine serum (FBS), and L-glutamine were purchased from Gibco BRL. Drugs were dissolved in sterile dimethylsulfoxide (DMSO), from American Type Culture Collection (ATCC) for stock solutions (2.5 to 5.0 mM). Subsequent dilutions were made using cell culture medium (prior to adding the drug to cells). SRB was purchased from Sigma and dissolved in 1.0 percent acetic acid. Trichloroacetic acid was purchased from VWR International.
(§3) Cells were manipulated in a Class IIA/B3 Biological Safety Cabinet (Forma Scientific) and maintained at 37°C in a humidified atmosphere containing 5% CO2 in a water-jacketed cell culture incubator (Forma Scientific). Cells were counted using a Coulter-Z1 counter (Beckman-Coulter). Following drug treatment, plates were washed using a Biomek 2000 station (Beckman) and, following exposure to SRB dye, plates were washed using an automated plate washer (Model EL404, Bio-Tek Instruments). Percentage of control was correlated to A570 values and determined using a Model EL800 plate reader (Bio-Tek Instruments).
(§4) Population doubling times for the two cell lines used in this study encompassed a total of five cell doublings corresponding to approximately 5 days for A2780/WT and A2780/DX5 cells. A2780/WT and A2780/DX5 cells were cultured in RPMI 1640 medium supplemented with 10% fetal bovine serum and 1 mM of L-glutamine. Both cell lines were maintained as monolayered cultures in T-25 or T-75 flasks and then seeded to microtiter plate wells for experiments described herein. Prior to SRB assays, cell viability was monitored by evaluation of microtiter plate wells. Dead cells detach and float while living cells remain attached to the bottom of the cell well.
(§5) The sulforhodamine B (SRB) cytotoxicity assay (see, Skehan P, et al., New colorimetric cytotoxicity assay for anticancer-drug screening. J. Natl. Cancer Inst. 82:1107-1112 (1990)) was used to determine the cytotoxic effects of BNP1350, SN-38, topotecan, 9-NH2-CPT, and 9-NO2-CPT on cell growth in vitro. Briefly, after the medium was aspirated from individual plate wells, trichloroacetic acid (100 µL of 10.0% solution) was added to each well, and the plates were incubated at 4°C for at least 1 hour. The plates were washed five-times with water using an automated microplate washer (Model EL 404, Bio-Tek Instruments), SRB solution (100 µL of 0.4 grams SRB dissolved in 100 mL 1.0 percent acetic acid) was added, and plates remained at room temperature for 15 minutes. The plates were then washed five-times using acetic acid (1.0%), air dried, and bound dye was solubilized in Tris base (150 µL, 10 mM). Plates were agitated (gently) for 5 minutes and the absorbance values of the SRB dye-protein adduct at a 570 nm wavelength (A570) were determined using an automated microtiter plate reader equipped with an A570 filter (Model EL800, BioTek Instruments). Table VII. Summary of Cytotoxicity Experiments in A2780/WT and DX5 Cells

Test [2] deals with A2780/WT (wild-type) cells. Kind of test: Sulforhodamine B (SRB) cytotoxicity assay in A2780/WT cells. In kind it is cell-based. How it is done: as §1, §2, §3, §4, §5
(In general: In SRB staining, fixed cells bind dye roughly in proportion to their protein.)

Setting [3] is: Homo sapiens, A2780, read-out: A2780/ DX5 (IC50).
The mark [4] stands for this setting: Homo sapiens, A2780, read-out: A2780/ WT (IC50).
Setting [5] is: SRB assay, A2780/DX5 cells, read-out: A2780/ DX5 (IC50).
The mark [6] stands for this setting: SRB assay, A2780/WT cells, read-out: A2780/ WT (IC50).
Where [7] appears, read: Homo sapiens, SRB assay, A2780/WT cells, read-out: A2780/ WT (IC50).
The mark [8] stands for this setting: Homo sapiens, SRB assay, A2780/DX5 cells, read-out: A2780/ DX5 (IC50).

Each structure is given as a SMILES string. pIC50: −log10 of the molar value. Like-named read-outs stand apart in the source and are kept apart here.

`CC[C@@]1(O)C(=O)OCc2c1cc1n(c2=O)Cc2c-1nc1ccccc1c2CC[Si](C)(C)CCCn1ccccc1=O` [Compound 17, (4S)-11-(2-{dimethyl-[3-(2-oxo-2H-pyridin-1-yl)-propyl]-silanyl}-ethyl)-4-ethyl-4-hydroxy-1,12-dihydro-4H-2-oxa-6,12a-diaza-dibenzo[b,h]fluorene-3,13-dione]: the “IC50 Ratio” value in test [1] is 11.6. Besides, the pIC50 in test [1] (setting [3]) is 6.73; in test [2] (setting [4]) it was 7.80.
Consider `CC[C@@]1(O)C(=O)OCc2c1cc1n(c2=O)Cc2c-1nc1ccccc1c2CC[Si](C)(C)CCCP(=O)(OC)OC` [Compound 18, (4S)-(3-{[2-(4-ethyl-4-hydroxy-3,13-dioxo-3,4,12,13-tetrahydro-1H-2-oxa-6,12a-diaza-dibenzo[b,h]fluoren-11-yl)-ethyl]-dimethylsilanyl}-propyl)-phosphonic acid dimethyl ester], for which the “IC50 Ratio” value in test [1] was found to be 11.7. The pIC50 is 6.16 in test [1] (setting [3]) and 7.23 in test [2] (setting [4]).
As for `CC[C@@]1(O)C(=O)OCc2c1cc1n(c2=O)Cc2c-1nc1ccccc1c2CC[Si](C)(C)CCCNC(=O)C(F)(F)F` [Compound 23, (4S)-N-(3-{[2-(4-ethyl-4-hydroxy-3,13-dioxo-3,4,12,13-tetrahydro-1H-2-oxa-6,12a-diaza-dibenzo[b,h]fluoren-11-yl)-ethyl]-dimethyl-silanyl}-propyl)-2,2,2-trifiuoro-acetamide], in test [1], the “IC50 Ratio” value is 3.3. Besides, the results for the pIC50 in test [1] (setting [5]) and in test [2] (setting [6]) were 7.25 and 7.77, respectively.
`CC[C@@]1(O)C(=O)OCc2c1cc1n(c2=O)Cc2c-1nc1ccccc1c2CC[Si](C)(C)CCCNC(=O)Nc1ccccc1` [Compound 25, (4S)-1-(3-{[2-(4-ethyl-4-hydroxy-3,13-dioxo-3,14,12,13-tetrahydro-1H-2-oxa-6,12a-diaza-dibenzo[b,h]fluoren-11-yl)-ethyl]-dimethylsilanyl}-propyl)-3-phenylurea]: the “IC50 Ratio” value in test [1] was 6.5. In addition, the values for the pIC50 in test [1] (setting [5]) and in test [2] (setting [6]) were 6.82 and 7.63, respectively.
On to `CCN(CC)C(=O)NCCC[Si](C)(C)CCc1c2c(nc3ccccc13)-c1cc3c(c(=O)n1C2)COC(=O)[C@]3(O)CC` [Compound 27, (4S)-1,1-diethyl-3-(3-{[2-(4-ethyl-4-hydroxy-3,13-dioxo-3,4,12,13-tetrahydro-1H-2-oxa-6,12a-diaza-dibenzo[b,h]fluoren-11-yl)-ethyl]-dimethyl-silanyl}-propyl)-urea], for which the “IC50 Ratio” value in test [1] came to 7.21. In addition, the results for the pIC50 in test [1] (setting [3]) and in test [2] (setting [4]) were 6.33 and 7.19, respectively.
As for `CC[C@@]1(O)C(=O)OCc2c1cc1n(c2=O)Cc2c-1nc1ccccc1c2CC[Si](C)(C)CCCNC(=O)N(C)C` [Compound 29, (4S)-3-(3-{[2-(4-ethyl-4-hydroxy-3,13-dioxo-3,4,12,13-tetrahydro-1H-2-oxa-6,12a-diaza-dibenzo[b,h]fluoren-11-yl)-ethyl]-dimethylsilanyl}-propyl)-1,1-dimethylurea], the “IC50 Ratio” value in test [1] amounted to 11.4. The pIC50 in test [1] (setting [3]) was 6.51; in test [2] (setting [4]) it was 7.56.
In the case of `CC[C@@]1(O)C(=O)OCc2c1cc1n(c2=O)Cc2c-1nc1ccccc1c2CC[Si](C)(C)Cn1ccccc1=O` [Compound 31, (4S)-11-{2-[dimethyl-(2-oxo-2H-pyridin-1-ylmethyl)-silanyl]-ethyl}-4-ethyl-4-hydroxy-1,12-dihydro-4H-2-oxa-6,12a-diaza-dibenzo[b,h]fluorene-3,13-dione], in test [1], the “IC50 Ratio” value was found to be 8.1. In addition, the figures for the pIC50 in test [1] (setting [3]) and in test [2] (setting [4]) were 7.01 and 7.92, respectively.
For `CC[C@@]1(O)C(=O)OCc2c1cc1n(c2=O)Cc2c-1nc1ccccc1c2CC[Si](C)(C)CN1CCCC1` [Compound 32, (4S)-11-[2-(dimethyl-pyrrolidin-1-ylmethyl-silanyl)-ethyl]-4-ethyl-4-hydroxy-1,12-dihydro-4H-2-oxa-6,12a-diaza-dibenzo[b,h]fluorene-3,13-dione], in test [1], the “IC50 Ratio” value is reported as 6.9. For the same compound, the pIC50 is 6.50 in test [1] (setting [3]) and 7.33 in test [2] (setting [7]).
Regarding `CC[C@@]1(O)C(=O)OCc2c1cc1n(c2=O)Cc2c-1nc1ccccc1c2CC[Si](C)(C)CSc1nccn1C` [Compound 33, (4S)-11-{2-[dimethyl-(1-methyl-1H-imidazol-2-ylsulfanylmethyl)-silanyl]-ethyl}-4-ethyl-4-hydroxy-1,12-dihydro-4H-2-oxa-6,12a-diaza-dibenzo[b,h]fluorene-3,13-dione], the “IC50 Ratio” value in test [1] turned out to be 6.0. Besides, the pIC50 is 7.24 in test [1] (setting [3]) and 8.01 in test [2] (setting [4]).
As to `CC[C@@]1(O)C(=O)OCc2c1cc1n(c2=O)Cc2c-1nc1ccccc1c2CC[Si](C)(C)CSC1=NCCS1` [Compound 34, (4S)-11-{2-[(4,5-dihydro-thiazol-2-ylsulfanylmethyl)-dimethylsilanyl]-ethyl}-4-ethyl-4-hydroxy-1,12-dihydro-4H-2-oxa-6,12a-diaza-dibenzo[b,h]fluorene-3,13-dione], the “IC50 Ratio” value in test [1] was 2.7. In addition, the pIC50 in test [1] (setting [8]) was 7.26; in test [2] (setting [4]) it was 7.69.
As for `CC[C@@]1(O)C(=O)OCc2c1cc1n(c2=O)Cc2c-1nc1ccccc1c2CC[Si](C)(C)CSCCO` [Compound 35, (4S)-4-ethyl-4-hydroxy-11-{2-[(2-hydroxy-ethylsulfanylmethyl)-dimethyl-silanyl]-ethyl}-1,12-dihydro-4H-2-oxa-6,12a-diaza-dibenzo[b,h]fluorene-3,13-dione], the “IC50 Ratio” value in test [1] is 2.6. Besides, the pIC50 was 7.67 in test [1] (setting [8]) and 8.09 in test [2] (setting [7]).
On to `CC[C@@]1(O)C(=O)OCc2c1cc1n(c2=O)Cc2c-1nc1ccccc1c2CC[Si](C)(C)CNS(=O)(=O)c1ccc(Cl)cc1` [Compound 37, (4S)-4-chloro-N-({[2-(4-ethyl-4-hydroxy-3,13-dioxo-3,4,12,13-tetrahydro-1H-2-oxa-6,12a-diaza-dibenzo[b,h]fluoren-11-yl)-ethyl]-dimethylsilanyl} -methyl)-benzenesulfonamide], for which the “IC50 Ratio” value in test [1] amounted to 4.08. In addition, the pIC50 is 6.07 in test [1] (setting [3]) and 6.68 in test [2] (setting [4]).
Take `CC[C@@]1(O)C(=O)OCc2c1cc1n(c2=O)Cc2c-1nc1ccccc1c2CC[Si](C)(C)CNC(=O)Nc1ccccc1` [Compound 41, (4S)-1-({[2-(4-ethyl-4-hydroxy-3,13-dioxo-3,4,12,13-tetrahydro-1H-2-oxa-6,12a-diaza-dibenzo[b,h]fluoren-11-yl)-ethyl]-dimethylsilanyl}-methyl)-3-phenylurea]: the “IC50 Ratio” value in test [1] stood at 11.2. Moreover, the pIC50 in test [1] (setting [3]) was 6.59; in test [2] (setting [4]) it was 7.63.
The matching figures for `CCN(CC)C(=O)NC[Si](C)(C)CCc1c2c(nc3ccccc13)-c1cc3c(c(=O)n1C2)COC(=O)[C@]3(O)CC` [Compound 43, (4S)-1,1-diethyl-3-({[2-(4-ethyl-4-hydroxy-3,13-dioxo-3,4,12,13-tetrahydro-1H-2-oxa-6,12a-diaza-dibenzo[b,h]fluoren-11-yl)-ethyl]-dimethylsilanyl} -methyl)-urea]: 4.28, 6.53 and 7.16.
Regarding `CC[C@@]1(O)C(=O)OCc2c1cc1n(c2=O)Cc2c-1nc1ccccc1c2CC[Si](C)(C)CNC(=O)N(C)C` [Compound 45, (4S)-3-({[2-(4-ethyl-4-hydroxy-3, 13-dioxo-3,4, 12, 13-tetrahydro-1H-2-oxa-6,12a-diaza-dibenzo[b,h]fluoren-11-yl)-ethyl]-dimethylsilanyl}-methyl)-1,1-dimethyl-urea], the “IC50 Ratio” value in test [1] is recorded as 4.9. For the same compound, the pIC50 is 6.75 in test [1] (setting [8]) and 7.44 in test [2] (setting [7]).
